Measured values taken from patent US11078170B2 (Assembly Biosciences, Inc., priority 2017, dated 2021).

What follows are molecules tested on HBV viral production from HepAD38 cells (assay: Activity of test compounds on viral production from HepAD38 cells (viral load by qPCR of HBV core sequence in supernatant)). Settings: Hepatitis B virus, 120 h, 5 days incubation, HBV DNA in supernatant by qPCR, top concentration 10 μM, read-out: Viral Load EC50 Activity range.
Assay type: cell-based
Procedure, shortened: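 EC50 and CC50 come from four-parameter fits of supernatant viral load and CellTiter-Glo viability, respectively. Viral load was measured by core-region TaqMan qPCR against HBV DNA standards and compared with DMSO controls. Tet-free HepAD38 cells (50,000/well, 2% FBS) were exposed to compound, highest 10 μM, for 5 days at 37° C.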
For `CN1[C@H](C(=O)Nc2cc(Cl)cc(Cl)c2)C[C@H](c2cccs2)NS1(=O)=O` [HBV-CSU-047-ISO-I, Cis-N-(3,5-Dichlorophenyl)-2-methyl-5-(thiophen-2-yl)-1,2,6-thiadiazinane-3-carboxamide 1,1-dioxide], the EC50 was < 1000 nM.
In the case of `CN1[C@H](C(=O)Nc2cc(Br)cc(Br)c2)C[C@H](c2cccs2)NS1(=O)=O` [HBV-CSU-048-ISO-I, Cis-N-(3,5-Dibromophenyl)-2-methyl-5-(thiophen-2-yl)-1,2,6-thiadiazinane-3-carboxamide 1,1-dioxide], the EC50 is reported as < 1000 nM.
With `CN1[C@H](C(=O)Nc2cc(F)c(F)c(Br)c2)C[C@H](c2cccs2)NS1(=O)=O` [HBV-CSU-049-ISO-I, Cis-N-(3-Bromo-4,5-difluorophenyl)-2-methyl-5-(thiophen-2-yl)-1,2,6-thiadiazinane-3-carboxamide 1,1-dioxide] the EC50 was < 1000 nM.
Work on `C[C@H]1C[C@@H](C(=O)Nc2ccc(F)c(Cl)c2)N(C)S(=O)(=O)N1` [HBV-CSU-050-ISO-I, Cis-N-(3-chloro-4-fluorophenyl)-2,5-dimethyl-1,2,6-thiadiazinane-3-carboxamide 1,1-dioxide] yielded an EC50 of 1000 to 5000 nM.
For `C[C@@H]1C[C@H](C(=O)Nc2ccc(F)c(Cl)c2)N(C)S(=O)(=O)N1` [HBV-CSU-050-ISO-II, Cis-N-(3-chloro-4-fluorophenyl)-2,5-dimethyl-1,2,6-thiadiazinane-3-carboxamide 1,1-dioxide], the EC50 was > 5000 nM.
For `CN1[C@@H](C(=O)Nc2ccc(F)c(Cl)c2)C[C@@H](c2ccnn2C)NS1(=O)=O` [HBV-CSU-054-ISO-I, Cis-N-(3-Chloro-4-fluorophenyl)-2-methyl-5-(1-methyl-1H-pyrazol-5-yl)-1,2,6-thiadiazinane-3-carboxamide 1,1-dioxide], the EC50 was > 5000 nM.
`CN1[C@H](C(=O)Nc2ccc(F)c(Cl)c2)C[C@H](c2ccnn2C)NS1(=O)=O` [HBV-CSU-054-ISO-II, Cis-N-(3-Chloro-4-fluorophenyl)-2-methyl-5-(1-methyl-1H-pyrazol-5-yl)-1,2,6-thiadiazinane-3-carboxamide 1,1-dioxide] gave an EC50 of 1000 to 5000 nM.
`CN1[C@H](C(=O)Nc2ccc(F)c(Cl)c2)C[C@H](c2ccon2)NS1(=O)=O` [HBV-CSU-055-ISO-I, Cis-N-(3-chloro-4-fluorophenyl)-5-(isoxazol-3-yl)-2-methyl-1,2,6-thiadiazinane-3-carboxamide 1,1-dioxide] was tested, and the EC50 was < 1000 nM.
In the case of `CN1[C@@H](C(=O)Nc2ccc(F)c(Cl)c2)C[C@@H](c2ccon2)NS1(=O)=O` [HBV-CSU-055-ISO-II, Cis-N-(3-chloro-4-fluorophenyl)-5-(isoxazol-3-yl)-2-methyl-1,2,6-thiadiazinane-3-carboxamide 1,1-dioxide], the EC50 is reported as > 5000 nM.
`CN1[C@H](C(=O)Nc2ccc(F)c(Cl)c2)C[C@H](c2ccsn2)NS1(=O)=O` [HBV-CSU-056-ISO-I, Cis-N-(3-chloro-4-fluorophenyl)-5-(isothiazol-3-yl)-2-methyl-1,2,6-thiadiazinane-3-carboxamide 1,1-dioxide] was tested, and the EC50 was < 1000 nM.
With `CN1C(C(=O)Nc2ccc(F)c(Cl)c2)CC(c2ccns2)NS1(=O)=O` (stereo not drawn) [HBV-CSU-057, Cis-N-(3-chloro-4-fluorophenyl)-5-(isothiazol-5-yl)-2-methyl-1,2,6-thiadiazinane-3-carboxamide 1,1-dioxide] the EC50 was < 1000 nM.
In the case of `COCCN1[C@@H](C(=O)Nc2ccc(F)c(Cl)c2)C[C@@H](c2nccs2)NS1(=O)=O` [HBV-CSU-058-ISO-I, Cis-N-(3-chloro-4-fluorophenyl)-2-(2-methoxyethyl)-5-(thiazol-2-yl)-1,2,6-thiadiazinane-3-carboxamide 1,1-dioxide], the EC50 is reported as > 5000 nM.
In the case of `COCCN1[C@H](C(=O)Nc2ccc(F)c(Cl)c2)C[C@H](c2nccs2)NS1(=O)=O` [HBV-CSU-058-ISO-II, Cis-N-(3-chloro-4-fluorophenyl)-2-(2-methoxyethyl)-5-(thiazol-2-yl)-1,2,6-thiadiazinane-3-carboxamide 1,1-dioxide], the EC50 is reported as < 1000 nM.
`COCCN1[C@@H](C(=O)Nc2ccc(F)c(Br)c2)C[C@@H](c2nccs2)NS1(=O)=O` [HBV-CSU-059-ISO-I, Cis-N-(3-bromo-4-fluorophenyl)-2-(2-methoxyethyl)-5-(thiazol-2-yl)-1,2,6-thiadiazinane-3-carboxamide 1,1-dioxide] was tested, and the EC50 was > 5000 nM.
In the case of `COCCN1[C@H](C(=O)Nc2ccc(F)c(Br)c2)C[C@H](c2nccs2)NS1(=O)=O` [HBV-CSU-059-ISO-II, Cis-N-(3-bromo-4-fluorophenyl)-2-(2-methoxyethyl)-5-(thiazol-2-yl)-1,2,6-thiadiazinane-3-carboxamide 1,1-dioxide], the EC50 is reported as < 1000 nM.
With `CN1[C@@H](C(=O)Nc2ccc(F)c(Br)c2)C[C@@H](c2nccs2)NS1(=O)=O` [HBV-CSU-060-ISO-I, Cis-N-(3-bromo-4-fluorophenyl)-2-methyl-5-(thiazol-2-yl)-1,2,6-thiadiazinane-3-carboxamide 1,1-dioxide] the EC50 was > 5000 nM.
`CN1[C@H](C(=O)Nc2ccc(F)c(Br)c2)C[C@H](c2nccs2)NS1(=O)=O` [HBV-CSU-060-ISO-II, Cis-N-(3-bromo-4-fluorophenyl)-2-methyl-5-(thiazol-2-yl)-1,2,6-thiadiazinane-3-carboxamide 1,1-dioxide] was tested, and the EC50 was < 1000 nM.
With `COCCN1C(c2cccs2)CC(C(=O)Nc2ccc(F)c(Cl)c2)N(C)S1(=O)=O` (stereo not drawn) [HBV-CSU-064, Cis-N-(3-Chloro-4-fluorophenyl)-6-(2-methoxyethyl)-2-methyl-5-(thiophen-2-yl)-1,2,6-thiadiazinane-3-carboxamide 1,1-dioxide] the EC50 was > 5000 nM.
`CC(C)(C)OCCN1[C@H](C(=O)Nc2ccc(F)c(Cl)c2)C[C@H](c2nccs2)NS1(=O)=O` [HBV-CSU-071-ISO-I, Cis-2-(2-(tert-Butoxy)ethyl)-N-(3-chloro-4-fluorophenyl)-5-(thiazol-2-yl)-1,2,6-thiadiazinane-3-carboxamide 1,1-dioxide] was tested, and the EC50 was < 1000 nM.
For `O=C(Nc1ccc(F)c(Cl)c1)[C@H]1C[C@@H](c2nccs2)NS(=O)(=O)N1CCOC(F)(F)F` [HBV-CSU-072-ISO-I, Cis-N-(3-Chloro-4-fluorophenyl)-5-(thiazol-2-yl)-2-(2-(trifluoromethoxy)ethyl)-1,2,6-thiadiazinane-3-carboxamide 1,1-dioxide], the EC50 was > 5000 nM.
For `O=C(Nc1ccc(F)c(Cl)c1)[C@@H]1C[C@H](c2nccs2)NS(=O)(=O)N1CCOC(F)(F)F` [HBV-CSU-072-ISO-II, Cis-N-(3-Chloro-4-fluorophenyl)-5-(thiazol-2-yl)-2-(2-(trifluoromethoxy)ethyl)-1,2,6-thiadiazinane-3-carboxamide 1,1-dioxide], the EC50 was < 1000 nM.
In the case of `COCCCN1[C@@H](C(=O)Nc2ccc(F)c(Cl)c2)C[C@@H](c2nccs2)NS1(=O)=O` [HBV-CSU-077-ISO-I, Cis-N-(3-Chloro-4-fluorophenyl)-2-(3-methoxypropyl)-5-(thiazol-2-yl)-1,2,6-thiadiazinane-3-carboxamide 1,1-dioxide], the EC50 is reported as > 5000 nM.
`COCCCN1[C@H](C(=O)Nc2ccc(F)c(Cl)c2)C[C@H](c2nccs2)NS1(=O)=O` [HBV-CSU-077-ISO-II, Cis-N-(3-Chloro-4-fluorophenyl)-2-(3-methoxypropyl)-5-(thiazol-2-yl)-1,2,6-thiadiazinane-3-carboxamide 1,1-dioxide] was tested, and the EC50 was < 1000 nM.
In the case of `O=C(Nc1ccc(F)c(Cl)c1)[C@@H]1C[C@H](c2nccs2)NS(=O)(=O)N1CCCO` [HBV-CSU-078-ISO-I, Cis-N-(3-Chloro-4-fluorophenyl)-2-(3-hydroxypropyl)-5-(thiazol-2-yl)-1,2,6-thiadiazinane-3-carboxamide 1,1-dioxide], the EC50 is reported as < 1000 nM.
